What was measured:
Assay type in all cases: in vivo
[1] = test system: wild oat (Avena fatua); experiment: Test B postemergence; settings: Rate 125 g/ha, scale 0 to 100, 0 no effect, 100 complete control
How it was run: (§1)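 Seeds were planted and sprayed preemergence with test chemical in a non-phytotoxic solvent mixture containing surfactant; postemergence plants (2 to 18 cm, 1- to 4-leaf stage) received the same formulation. Greenhouse hold 13 to 15 days, then visual rating versus untreated controls on a 0–100 scale (0 no effect, 100 complete control).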

[2] = test system: corn (Zea mays); experiment: Test B postemergence
How it was run: as §1

[3] = test system: barnyardgrass (Echinochloa crus-galli); experiment: Test B postemergence
How it was run: as §1

[4] = test system: wheat (Triticum aestivum); experiment: Test B postemergence; settings: Rate 125 g/ha, scale 0 to 100, 0 no effect, 100 complete control
How it was run: as §1

[5] = test system: Sunflower; experiment: Test C preemergence; settings: Rate 250 g/ha, scale 0 to 100, 0 no effect, 100 complete control
[6] = test system: Nightshade; experiment: Test C preemergence
[7] = test system: lambsquarters (Chenopodium album); experiment: Test C preemergence
How it was run: (§2)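 Visual 0–100 rating vs controls (0 = no effect, 100 = complete control) at 12–14 d, greenhouse. Compounds in non-phytotoxic solvent + surfactant; pre: sprayed after seeding; post: 1–4-leaf plants, 2–18 cm.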

[8] = test system: corn (Zea mays); experiment: Test C preemergence
How it was run: as §2

[9] = test system: woolly cupgrass (Eriochloa villosa); experiment: Test C preemergence
How it was run: as §2

[10] = test system: soybean (Glycine max); experiment: Test C preemergence; settings: preemergence; Rate 250 g/ha; scale 0 to 100, 0 no effect, 100 complete control
How it was run: as §2

[11] = test system: johnsongrass (Sorghum halepense); experiment: Test C preemergence
How it was run: as §2

[12] = test system: yellow nutsedge (Cyperus esculentus); experiment: Test C preemergence
How it was run: as §2

[13] = test system: kochia (Kochia scoparia); experiment: Test C preemergence
How it was run: as §2

[14] = test system: pigweed (Amaranthus retroflexus); experiment: Test C preemergence
How it was run: as §2

[15] = test system: Nightshade; experiment: Test C preemergence; settings: Rate 500 g/ha, visual evaluation after 12 to 14 days
[16] = test system: duck salad (Heteranthera limosa); experiment: Test C flooded paddy test; settings: for Ducksalad plant response rating: Flooded Paddy, scale 0 to 100, 0 no effect, 100 complete control; for Plant response rating, Ducksalad: flooded paddy test, scale 0 to 100 (0 no effect, 100 complete control)
How it was run: (§3)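 Visual ratings (0 = no effect, 100 = complete control) were made 12–14 days after treatment, relative to greenhouse controls. Plants in the flooded paddy test were rice, smallflower flatsedge, duck salad and barnyardgrass, treated at the 2-leaf stage.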

[17] = test system: barnyardgrass (Echinochloa crus-galli); experiment: Test C flooded paddy test; settings: for Barnyardgrass plant response rating: Flooded Paddy, scale 0 to 100, 0 no effect, 100 complete control; for Plant response rating, Barnyardgrass: flooded paddy test, scale 0 to 100 (0 no effect, 100 complete control)
How it was run: as §3

[18] = test system: rice (Oryza saliva); experiment: Test C flooded paddy test; settings: for Rice plant response rating: Flooded Paddy, scale 0 to 100, 0 no effect, 100 complete control; for Plant response rating, Rice: flooded paddy test, scale 0 to 100 (0 no effect, 100 complete control)
How it was run: as §3

[19] = test system: smallflower flatsedge (Cyperus difformis); experiment: Test C flooded paddy test; settings: for Flatsedge plant response rating: Flooded Paddy, scale 0 to 100, 0 no effect, 100 complete control; for Plant response rating, Flatsedge: flooded paddy test, scale 0 to 100 (0 no effect, 100 complete control)
How it was run: as §3

[20] = Rate 125 g/ha, scale 0 to 100, 0 no effect, 100 complete control
[21] = Rate 500 g/ha, scale 0 to 100, 0 is no effect, 100 is complete control, 13 to 15 days
[22] = preemergence, Rate 62 g/ha, scale 0 to 100
[23] = preemergence, Rate 500 g/ha, visual evaluation after 12 to 14 days
[24] = preemergence, Rate 250 g/ha, scale 0 to 100, 0 no effect, 100 complete control

CCOc1cccc(N2CCC(n3ccc(C(C)C)n3)C2=O)c1 (centres unmarked) [Compound 128]
60: Plant response rating (0 to 100), Corn [8, 23] | Plant response rating, Soybean [10] | Plant response rating, Johnsongrass [11, 22] | Plant response rating, Ducksalad ([16]; Rate 62 g/ha)
40: Plant response rating, Nightshade [6, 20] | Plant response rating, Corn [8, 24] | Plant response rating, Barnyardgrass ([17]; Rate 62 g/ha)
30: Rice plant response rating ([18]; Rate 250 g/ha) | Plant response rating, Rice ([18]; Rate 125 g/ha)
20: Plant response rating, Nightshade ([6]; Rate 62 g/ha, scale 0 to 100) | Plant response rating, Corn [8, 20] | Plant response rating, Nutsedge [12, 22]
80: Plant response rating, Barnyardgrass [3, 21] | Plant response rating, Pigweed [14, 24]
0: Plant response rating, Wild Oat [1] | Plant response rating, Corn [2, 20] | Plant response rating, Corn [2, 21] | Plant response rating, Barnyardgrass [3, 20] | Plant response rating, Wheat [4] | Plant response rating, Corn [8, 22] | Plant response rating, Rice ([18]; Rate 62 g/ha)
70: Plant response rating, Nutsedge [12, 20] | Plant response rating, Pigweed [14, 20] | Plant response rating, Pigweed [14, 22] | Plant response rating, Ducksalad ([16]; Rate 125 g/ha) | Rice plant response rating ([18]; Rate 500 g/ha)
90: Plant response rating, Nightshade ([6]; Rate 250 g/ha, scale 0 to 100, 0 no effect, 100 complete control) | Plant response rating, Johnsongrass [11, 20] | Plant response rating, Flatsedge ([19]; Rate 62 g/ha) | Plant response rating, Flatsedge ([19]; Rate 125 g/ha)
100: Plant response rating, Sunflower [5] | Plant response rating, Lambsquarters [7, 20] | Plant response rating, Lambsquarters [7, 22] | Plant response rating (0 to 100), Lambsquarters [7, 23] | Plant response rating, Lambsquarters [7, 24] | Plant response rating, Cupgrass, Woolly [9, 20] | Plant response rating, Cupgrass, Woolly [9, 22] | Plant response rating (0 to 100), Cupgrass, Woolly [9, 23] | Plant response rating, Cupgrass, Woolly [9, 24] | Plant response rating (0 to 100), Johnsongrass [11, 23] | Plant response rating, Johnsongrass [11, 24] | Plant response rating (0 to 100), Nutsedge [12, 23] | Plant response rating, Nutsedge [12, 24] | Plant response rating, Kochia [13, 20] | Plant response rating, Kochia [13, 22] | Plant response rating (0 to 100), Kochia [13, 23] | Plant response rating, Kochia [13, 24] | Plant response rating (0 to 100), Pigweed [14, 23] | Plant response rating (0 to 100), Nightshade [15] | Ducksalad plant response rating ([16]; Rate 250 g/ha) | Ducksalad plant response rating ([16]; Rate 500 g/ha) | Barnyardgrass plant response rating ([17]; Rate 250 g/ha) | Barnyardgrass plant response rating ([17]; Rate 500 g/ha) | Plant response rating, Barnyardgrass ([17]; Rate 125 g/ha) | Flatsedge plant response rating ([19]; Rate 250 g/ha) | Flatsedge plant response rating ([19]; Rate 500 g/ha)

From patent US7138361B2, “Herbicidal heterocycles” (E. I. du Pont de Nemours and Company, priority 2000, dated 2006)
